Data reported in patent US6469058B1 (priority 1998, dated 2002).
“And” between values parts separate entries of the source, which are not always exact repeats. Equal values may be shown once. Read-outs that look alike come from different tables or passages of the source.

Experiments:
[1] = Route of elimination, radiolabeled drug in urine, rats; type: in vivo; conditions: within 24 hours
Method: (§1) Mass balance/route of elimination studies have not been conducted in humans. Animal studies indicate that the principal route of elimination is via renal excretion, with 80% and 62% of radiolabeled drug appearing in the urine of monkeys and rats, respectively, within 24 hours.

[2] = human, in vivo
[3] = system: LC-12 squamous cell lung carcinoma tumor; conditions: for % Weight Change / CR / Net Log10 Kill / PR / T − C / Toxic Deaths: days 11-15, 18-22, 25-29; for day on which significant tumor growth commenced (FIG. 1): controls Day 10
[4] = Phase 1 dose-escalation study of CI-994 in solid tumor patients (MTD, pharmacokinetics, food effect)
[5] = Phase 1 study of CI-994 in relapsed acute leukemia or other hematologic malignancy; type: in vivo
Method: An additional Phase 1 study was conducted in patients with relapsed acute leukemia or other hematologic malignancy using a once daily high-dose 5-day dosing schedule. The MTD was 135 mg/m^2/day. […] Other adverse events included nausea, vomiting, hypotension resulting from dehydration, hypocalcemia, headache, and in one patient each, acute pancreatitis, a pyramidal syndrome characterized by hyperreflexia and bilateral Babinski reflexes, and sepsis. Hematologic toxicities cannot be assessed in this patient population. Two patients with AML developed tumor lysis syndrome, resulting in one death. Transient decreases in peripheral white blood cell counts were noted.

[6] = Route of elimination, radiolabeled drug in urine, monkeys; type: in vivo; conditions: within 24 hours
Method: as §1

clinical = conditions: human, in vivo, po
[7] = CI-994 7.5 mg/kg/day alone, days 3-7, 10-14, 17-21
[8] = CI-994 7.5 mg/kg/day alone, days 17-21, 24-28, 31-35
[9] = CI-994 15 mg/kg/day alone, days 3-7, 10-14, 17-21
[10] = CI-994 15 mg/kg/day alone, days 17-21, 24-28, 31-35
[11] = CI-994 30 mg/kg/day alone, days 3-7, 10-14, 17-21
[12] = CI-994 30 mg/kg/day alone, days 17-21, 24-28, 31-35
[13] = CI-994 60 mg/kg/day alone, days 3-7, 10-14, 17-21
[14] = CI-994 60 mg/kg/day alone, days 17-21, 24-28, 31-35
[15] = Table 2 study, CI-994 7.5 mg/kg/day alone
[16] = Table 2 study, CI-994 15 mg/kg/day alone
[17] = Table 2 study, CI-994 30 mg/kg/day alone
[18] = Table 2 study, CI-994 60 mg/kg/day alone

For `CC(=O)Nc1ccc(C(=O)Nc2ccccc2N)cc1` [CI-994, 4-acetylamino-N-(2′-aminophenyl)-benzamide], the Clinical benefit (Phase 2, 8 mg/m^2 orally daily) was “Clinical benefit has been reported in patients with renal cell cancer”, the Objective responses (Phase 2, 8 mg/m^2 orally daily) was “Objective responses have been seen in patients with nonsmall cell lung cancer” and the dose-limiting toxicity (in vivo, po) was “Thrombocytopenia”. For the same compound, the “radiolabeled drug appearing in the urine” value [1] was 62%, the cumulative toxicity [2] was “no evidence of cumulative toxicity” and the dose-limiting toxicity [2] was “thrombocytopenia or neutropenia”. The “maximum plasma concentrations with increasing dose levels” value ([2]; po) was “less than dose-proportional”, the “terminal elimination half-life and apparent clearance rate vs dose” value ([2]; po) was “independent of the dose administered” and the “time to maximum blood level after ingestion” value ([2]; po) was 1 to 2 h. The “% Tumor free” value (C26 colon tumor; [7]) was 0/10, the “Net Log10 Kill” value (C26 colon tumor; [7]) was −2.2 and the “T − C” value (C26 colon tumor; [7]) was 1.6 days. The “Toxic Deaths” value (C26 colon tumor; [7]) was 0/10, the “% Tumor free” value (C26 colon tumor; [8]) was 0/10 and the “Net Log10 Kill” value (C26 colon tumor; [8]) was −1.3. For the same compound, the “T − C” value (C26 colon tumor; [8]) was 3.1 days, the “Toxic Deaths” value (C26 colon tumor; [8]) was 0/10 and the “% Tumor free” value (C26 colon tumor; [9]) was 0/9. The “Net Log10 Kill” value (C26 colon tumor; [9]) was −2.3, the “T − C” value (C26 colon tumor; [9]) was 1.0 days and the “Toxic Deaths” value (C26 colon tumor; [9]) was 0/9. For the same compound, the “% Tumor free” value (C26 colon tumor; [10]) was 0/10, the “Net Log10 Kill” value (C26 colon tumor; [10]) was −1.0 and the “T − C” value (C26 colon tumor; [10]) was 6.7 days. For the same compound, the “Toxic Deaths” value (C26 colon tumor; [10]) was 0/10, the “% Tumor free” value (C26 colon tumor; [11]) was 0/9 and the “Net Log10 Kill” value (C26 colon tumor; [11]) was −1.8. For the same compound, the “T − C” value (C26 colon tumor; [11]) was 4.6 days, the “Toxic Deaths” value (C26 colon tumor; [11]) was 0/9 and the “% Tumor free” value (C26 colon tumor; [12]) was 0/10. For the same compound, the “Net Log10 Kill” value (C26 colon tumor; [12]) was −0.8, the “T − C” value (C26 colon tumor; [12]) was 8.4 days and the “Toxic Deaths” value (C26 colon tumor; [12]) was 1/10. For the same compound, the “% Tumor free” value (C26 colon tumor; [13]) was 0/9, the “Net Log10 Kill” value (C26 colon tumor; [13]) was −1.8 and the “T − C” value (C26 colon tumor; [13]) was 4.8 days. For the same compound, the “Toxic Deaths” value (C26 colon tumor; [13]) was 0/9, the “% Tumor free” value (C26 colon tumor; [14]) was 0/10 and the “Net Log10 Kill” value (C26 colon tumor; [14]) was −0.7. The “T − C” value (C26 colon tumor; [14]) was 10.1 days, the “Toxic Deaths” value (C26 colon tumor; [14]) was 0/10 and the “% Weight Change” value ([3]; CI-994 7.5 mg/kg/day alone) was “+4%”. The CR ([3]; CI-994 7.5 mg/kg/day alone) was 1/6, the “Net Log10 Kill” value ([3]; CI-994 7.5 mg/kg/day alone) was −1.2 and the PR ([3]; CI-994 7.5 mg/kg/day alone) was 0/6. The “T − C” value ([3]; CI-994 7.5 mg/kg/day alone) was 2.4 days, the “Toxic Deaths” value ([3]; CI-994 7.5 mg/kg/day alone) was 0/6 and the “% Weight Change” value ([3]; CI-994 15 mg/kg/day alone) was “+10%”. For the same compound, the CR ([3]; CI-994 15 mg/kg/day alone) was 0/6, the “Net Log10 Kill” value ([3]; CI-994 15 mg/kg/day alone) was −1.4 and the PR ([3]; CI-994 15 mg/kg/day alone) was 0/6. For the same compound, the “T − C” value ([3]; CI-994 15 mg/kg/day alone) was 0.4 days, the “Toxic Deaths” value ([3]; CI-994 15 mg/kg/day alone) was 0/6 and the “% Weight Change” value ([3]; CI-994 30 mg/kg/day alone) was “+1%”. For the same compound, the CR ([3]; CI-994 30 mg/kg/day alone) was 0/6, the “Net Log10 Kill” value ([3]; CI-994 30 mg/kg/day alone) was −1.3 and the PR ([3]; CI-994 30 mg/kg/day alone) was 0/6. For the same compound, the “T − C” value ([3]; CI-994 30 mg/kg/day alone) was 1.6 days, the “Toxic Deaths” value ([3]; CI-994 30 mg/kg/day alone) was 0/6 and the “% Weight Change” value ([3]; CI-994 60 mg/kg/day alone) was −9%. For the same compound, the CR ([3]; CI-994 60 mg/kg/day alone) was 3/6, the “Net Log10 Kill” value ([3]; CI-994 60 mg/kg/day alone) was −0.8 and the PR ([3]; CI-994 60 mg/kg/day alone) was 0/6. For the same compound, the “T − C” value ([3]; CI-994 60 mg/kg/day alone) was 7.8 days, the “Toxic Deaths” value ([3]; CI-994 60 mg/kg/day alone) was 0/6 and the “% Weight Change” value [3, 15] was “+9%”. The CR [3, 15] was 0/10, the “Net Log10 Kill” value [3, 15] was 0 and the PR [3, 15] was 0/10. The “T − C” value [3, 15] was -1.4 days, the “Toxic Deaths” value [3, 15] was 0/10 and the “% Weight Change” value [3, 16] was “+11%”. For the same compound, the CR [3, 16] was 0/10, the “Net Log10 Kill” value [3, 16] was 0 and the PR [3, 16] was 0/10. For the same compound, the “T − C” value [3, 16] was -1.9 days, the “Toxic Deaths” value [3, 16] was 0/10 and the “% Weight Change” value [3, 17] was “+11%”. For the same compound, the CR [3, 17] was 0/10, the “Net Log10 Kill” value [3, 17] was −0.8 and the PR [3, 17] was 0/10. For the same compound, the “T − C” value [3, 17] was 4.3 days, the “Toxic Deaths” value [3, 17] was 0/10 and the “% Weight Change” value [3, 18] was “+11%”. For the same compound, the “Net Log10 Kill” value [3, 18] was −0.5, the PR [3, 18] was 0/10 and the “T − C” value [3, 18] was 8.7 days. For the same compound, the “Toxic Deaths” value [3, 18] was 0/10, the CR ([3]; Table 2 study, CI-994 60 mg/kg/day alone, 60 mg/kg/day) was “two complete responses out of 10 and 2/10” and the “day on which significant tumor growth commenced (FIG. 1)” value ([3]; oral 30 mg/kg, Days 10-14, 17-21, 24-28) was about 24 days. For the same compound, the “day on which significant tumor growth commenced (FIG. 1)” value ([3]; oral 45 mg/kg, Days 10-14, 17-21, 24-28) was about 24 days, the “tumor growth delayed for (FIG. 1)” value ([3]; oral 60 mg/kg, Days 10-14, 17-21, 24-28) was 33 days and the MTD ([4]; 8 weeks of continuous daily therapy followed by a 2-week drug holiday) was 8 mg/m^2/day. The Responses ([4]; dose-escalation study) was “one partial response in a heavily pretreated patient with NSCLC and a minor response in one patient each with renal cell cancer and NSCLC”, the “maximum tolerated dose (MTD)” value ([4]; duration of treatment 14 consecutive days) was 15 mg/m^2/day and the dose-limiting toxicity ([5]; in vivo) was “acute CNS toxicity manifested as sedation and somnolence”. The MTD ([5]; patients with relapsed acute leukemia or other hematologic malignancy, once daily high-dose 5-day dosing schedule) was 135 mg/m^2/day, the “radiolabeled drug appearing in the urine” value [6] was 80% and the half-life (clinical) was about 15 h.
